Laboratory results taken from patent US12644143B2, “Method for the determination of antibiotic susceptibility through stimulated Raman metabolic imaging” (priority 2017, dated 2026).
In brackets after ≈: the same amount, converted by molar mass.

Experiments:
Format in all cases: cell-based
[1] = test system: S. aureus
Description: (§1) The toxicity of D2O was first tested on bacteria by measuring the growth in a D2O containing medium. Three types of bacteria (E. coli, S. aureus, and P. aeruginosa) were cultured at different concentrated D2O containing LB medium, and their growth were monitored with optical density (OD) measurement at about 600 nm.

[2] = test system: E. coli
Description: as §1

[3] = test system: P. aeruginosa
Description: as §1

[4] = test system: P. aeruginosa; assay: conventional culture-based microdilution method; settings: 20 μg/ml
Description: (§2) P. aeruginosa were cultivated in 70% D2O containing LB medium, with the addition of 20 μg/ml gentamicin or cefotaxime to determine the antibiotic effect on the metabolic activity of D2O in bacteria, and wherein it is suitable for use of rapid AST with SRS imaging. The susceptibility of P. aeruginosa were pre-determined to be susceptible to gentamicin and resistant to cefotaxime at this concentration using conventional culture-based microdilution method. […] This filamentary formation may also be observed when P. aeruginosa was treated with other β-lactam antibiotics 10.

[5] = test system: P. aeruginosa; assay: SRS imaging of D2O metabolic activity (C-D signal at 2162 cm-1); settings: for C-D signal / metabolic activity of D2O in SRS imaging: 10 minutes to 3 hours; for average C-D signal intensity relative to about 65% of control threshold: all time points about 10 minutes to about 3 hours
Description: A 70% D2O containing LB medium was provided to cultivate bacteria, and used P. aeruginosa as a model to test whether the D2O metabolic activity in single bacterium can be monitored by SRS microscope. P. aeruginosa was separately cultivated in normal LB and 70% D2O containing LB medium for about 2 hours, and then centrifuged and washed in water to remove the culture medium. […] To image single bacterium, bacteria were further diluted and deposited on an agarose gel pad. […] The results were confirmed by SRS spectrum (FIG. 16C) obtained through temporal tuning of chirped pump and Stokes femtosecond pulses.
A time lapse of D2O metabolic activity can be carried out in single P. aeruginosa with femtosecond SRS imaging. P. aeruginosa was first cultivated in about 70% D2O containing LB medium for up to about 3 hours, at different time points, about 500 μl bacteria were centrifuged, washed and deposited on agarose gel pad for imaging. […] To view individual bacterium more clearly, the images in FIG. 18A were further zoomed in FIG. 18B.
as §2
The D2O metabolic activity of bacteria can be used to rapid differentiate the antibiotic susceptibility of bacteria and examined using the average C-D signal intensity of bacteria being compared between three groups shown in FIGS. 19C-H, the control without antibiotics treatment (FIG. 18A), treated with gentamicin (FIG. 19A), and treated with cefotaxime (FIG. 19B). […] Therefore, the susceptibility of P. aeruginosa to gentamicin and cefotaxime can be determined in as short as about 10 minutes.
The SRS metabolic imaging method can determine the minimal inhibitory concentration (MIC) of antibiotics to bacteria and was done by cultivating P. aeruginosa in about 70% D2O containing LB medium for about 1 hour with the addition of gentamicin with serial diluted concentration. […] With the 65% intensity threshold, the MIC was determined to be about 8 μg/ml with SRS-based D2O metabolic imaging method, which is consistent to the result determined by the conventional culture-based method.

[6] = test system: E. faecalis 31970 (vancomycin susceptible enterococci, VSE); assay: SRS metabolic imaging of glucose-d7 uptake (C-D signal) for AST; settings: for susceptibility of E. faecalis 31970 based on metabolic imaging method: 20 μg/mL antibiotic; for C-D signal in SRS imaging versus control: E. faecalis 31970, 20 μg/mL antibiotic; for intensity of C-D component versus control: 1 hour
Description: (§3) The SRS imaging based method of the present disclosure can determine the susceptibility of bacteria to antibiotics within about […]. A bacteria solution for testing through SRS imaging and placement on the agarose gel pad can be prepared by cultivating bacteria in a broth, such as a Lysogeny broth (LB) (LB Broth, Sigma Aldrich) for about two hours to reach to log phase. The bacteria can then added in a ratio between about 0.1:100 to about a 10:100 ratio to 2 mL of various types of medium. In one exemplary embodiment, the ration can be about 1:100 to 2 ML of medium, such as a specialized medium. Some exemplary embodiments can use D2O medium or other specialized medium herein referred to as M9 medium wherein about a 2% glucose-d7 can be only carbon source. The M9 medium is developed and selected to maximize the signal within the C-D vibrational region. To measure the resistance of a given bacteria to an antibiotic, the antibiotic is added to the specialized medium to a concentration of about 20 μg/mL. After at least about 30 minutes of incubation about 500 μl of the sample is centrifuged, washed twice with purified water, and deposited to an agarose gel pad for imaging. An imaging setup of illustrated in FIG. 1A can be utilized to process the sample.
Referring now to FIG. 2A-D the method of the present disclosure can generally be performed in an exemplary method to determine effectiveness utilizing an antibiotic, such as vancomycin. Accordingly, the method can be utilized to examine the influence of antibiotics to the metabolic uptake of glucose-d7 by bacteria. Vancomycin susceptible (VSE) and Vancomycin resistant (VRE) enterococci E. faecalis can first be grown to a log phase by cultivating in LB medium for about 2 hours, then VSE and VRE can further be cultivated in M9 medium with about 2% glucose-d7 as the sole carbon source, respectively, with the addition of vancomycin to a final concentration of about 20 μg/mL (FIG. 2A). Other embodiments can include various types of carbon source as a sole carbon source or in combination with other carbon or nutrient sources. One exemplary embodiment can use a nutrient source of about 0-100% deuterium dioxide. Similarly, the carbon source can include a combination of deuterium dioxide and glucose-d7. This concentration was chosen because it is between the minimum inhibitory concentrations (MICS) of vancomycin to VSE (MIC is 1 μg/mL) and to VRE (MIC is >100 μg/mL). For control, VSE and VRE were cultivated in glucose-d7 containing medium without the addition of vancomycin (FIG. 2a). After 30 minutes (0.5 hours) to 3 hours incubation, each sample was centrifuged and washed twice in water, and then deposited on an agarose gel pad for SRS imaging.
(§4) To quantify the C-D content of the E. faecalis cells and the response of bacteria to the treatment of antibiotics, multivariate curve resolution (MCR) analysis is applied to retrieve the C-D component from hyperspectral SRS imaging data shown in FIGS. 3A-D. MCR is a bilinear model which decomposes the experimental data matrix that contains spectrum at each pixel into concentration maps and spectra of principle components. With an initial estimated spectrum of each component as the input, MCR is calculated and optimized iteratively using alternating least squares algorithm until convergence is reached. The output of MCR contains the concentration map and spectrum of each component. Referring now to FIG. 3A-D the spectra of glucose-d7, which represented the C-D component, and gel, which represented the background, were used as the input components. After MCR analysis, C-D component can be clearly separated from the background and utilized to quantify the contents of the collected SRS imaging data.
The MIC, defined as the lowest concentration of antibiotic that is able to inhibit the visible growth of bacteria in vitro, can be determined by our metabolic imaging method. […]

[7] = test system: E. faecalis 31970 (vancomycin susceptible enterococci, VSE); assay: MIC by conventional culture based method
[8] = test system: E. faecalis 31970
Description: (§5) To test the toxicity of glucose-d7 to bacteria, E. faecalis 31970 and 31972 were cultivated in custom-made M9 medium, one with normal glucose for control and the other with glucose-d7. The growth of bacteria was monitored by optical density (OD) measurement at 600 nm for up to 22 hours (FIG. 9). […] FIG. 9A illustrates OD measurement for vancomycin susceptible enterococci cultured in M9 medium with either 2% normal glucose or 2% glucose-d7, whereas FIG. 9B illustrates OD measurement for vancomycin resistant enterococci cultured in M9 medium with either 2% normal glucose or 2% glucose-d7.

[9] = test system: E. faecalis 31972
Description: as §5

[10] = test system: S. aureus strain susceptible to oxacillin; assay: MIC of oxacillin; settings: Staphylococcus aureus
[11] = test system: S. aureus strain resistant to oxacillin; assay: SRS metabolic imaging of deuterated glucose (C-D peak); settings: 1.3 μg/ml oxacillin, 0.5 h, glucose-d2 containing medium
Description: (§6) The metabolic activity of glucose-d2 can be observed in single bacterium cultivated in glucose-d2 containing medium for 0.5 h by SRS imaging (FIG. 11B). […] Therefore, susceptible and resistant S. aureus can be determined in about 0.5 h.

[12] = test system: S. aureus strain susceptible to oxacillin; assay: as above; settings: 1.3 μg/ml oxacillin, 0.5 h, glucose-d2 containing medium
Description: as §6

[13] = test system: vancomycin resistant (VRE) enterococci E. faecalis; assay: MIC by conventional culture based method; settings: Enterococcus
[14] = test system: vancomycin resistant (VRE) enterococci E. faecalis; assay: SRS metabolic imaging of glucose-d7 uptake (C-D signal) for AST; settings: for intensity of C-D component after MCR versus control: 20 μg/ml
Description: as §3, with “sample. […]” for “sample.”
as §4, with “The output of MCR contains the concentration map and spectrum of each component. Referring now to FIG. 3A-D the spectra of glucose-d7, which represented the C-D component, and gel, which represented the background, were used as the input components.” left out, “data. […]” for “data.”

[15] = Enterococcus faecalis, conventional culture based method, E. faecalis 31970 (VSE), read-out: MIC

[2H]O[2H] [D2O]
toxicity to growth [1]: did not show significant toxicity
toxicity to growth [2]: did not show significant toxicity
growth of P. aeruginosa [3]: initially slowed down

CO/N=C(\C(=O)N[C@@H]1C(=O)N2C(C(=O)O)=C(COC(C)=O)CS[C@H]12)c1csc(N)n1 [cefotaxime]
susceptibility of P. aeruginosa pre-determined by microdilution [4]: resistant
bacterial morphology on cultivation with antibiotic ([5]; 20 μg/ml, 70% D2O LB medium): tends to form long rods
C-D signal / metabolic activity of D2O in SRS imaging ([5]; 20 μg/ml, 70% D2O LB medium): active metabolic activity of D2O
average C-D signal intensity relative to about 65% of control threshold ([5]; 20 μg/ml): always above the threshold

CCCCCCCCCC(=O)N[C@@H](Cc1c[nH]c2ccccc12)C(=O)N[C@H](CC(N)=O)C(=O)N[C@@H](CC(=O)O)C(=O)N[C@@H]1C(=O)NCC(=O)N[C@@H](CCCN)C(=O)N[C@@H](CC(=O)O)C(=O)N[C@H](C)C(=O)N[C@@H](CC(=O)O)C(=O)NCC(=O)N[C@H](CO)C(=O)N[C@@H]([C@H](C)CC(=O)O)C(=O)N[C@@H](CC(=O)c2ccccc2N)C(=O)O[C@@H]1C [daptomycin]
susceptibility of E. faecalis 31970 based on metabolic imaging method ([6]; 1 h): resistant
MIC [7, 15]: 32 µg/mL (≈ 19.7 µM)

CC[C@H]1OC(=O)[C@H](C)[C@@H](O[C@H]2C[C@@](C)(OC)[C@@H](O)[C@H](C)O2)[C@H](C)[C@@H](O[C@@H]2O[C@H](C)C[C@H](N(C)C)[C@H]2O)[C@](C)(O)C[C@@H](C)C(=O)[C@H](C)[C@@H](O)[C@]1(C)O [erythromycin]
susceptibility of E. faecalis 31970 based on metabolic imaging method ([6]; 1 h): resistant
MIC [7, 15]: > 256 µg/mL

[2H]C(=O)[C@]([2H])(O)[C@@]([2H])(O)[C@]([2H])(O)[C@]([2H])(O)C([2H])([2H])O [glucose-d7]
toxicity to bacterial growth [8]: no toxicity
toxicity to bacterial growth [9]: no toxicity

CC(=O)NC[C@H]1CN(c2ccc(N3CCOCC3)c(F)c2)C(=O)O1 [linezolid]
susceptibility of E. faecalis 31970 based on metabolic imaging method ([6]; 1 h): susceptible
C-D signal in SRS imaging versus control ([6]; 1 h): significant reduction
MIC [7, 15]: 2 µg/mL (≈ 5.93 µM)

Cc1onc(-c2ccccc2)c1C(=O)N[C@@H]1C(=O)N2[C@@H]1SC(C)(C)[C@@H]2C(=O)O [oxacillin]
MIC [10]: 0.0625 µg/mL
C-D peak versus untreated control [11]: no significant change
C-D peak versus untreated control [12]: reduction in C-D peak

CN[C@H](CC(C)C)C(=O)N[C@H]1C(=O)N[C@@H](CC(N)=O)C(=O)N[C@H]2C(=O)N[C@H]3C(=O)N[C@H](C(=O)N[C@H](C(=O)O)c4cc(O)cc(O)c4-c4cc3ccc4O)[C@H](O)c3ccc(c(Cl)c3)Oc3cc2cc(c3O[C@@H]2O[C@H](CO)[C@@H](O)[C@H](O)[C@H]2O[C@H]2C[C@](C)(N)[C@H](O)[C@H](C)O2)Oc2ccc(cc2Cl)[C@H]1O [vancomycin]
MIC [13]: > 100 µg/mL
susceptibility of E. faecalis 31970 based on metabolic imaging method ([6]; 1 h): susceptible
intensity of C-D signal for individual VSE relative to control group ([6]; 20 μg/mL vancomycin, 30 minutes in glucose-d7 medium, fraction of control): about ⅓
C-D signal in SRS imaging versus control ([6]; 1 h): significant reduction
MIC ([6]; Enterococcus faecalis, 1 h, read-out: MIC determined by metabolic imaging method): 2 µg/mL
intensity of C-D component versus control ([6]; VSE, 1 μg/mL vancomycin): did not reduce
intensity of C-D component versus control ([6]; VSE, 2 μg/mL or higher vancomycin): significantly reduced
normalized SRS spectra, signal intensity in C-D region versus control ([6]; VSE, 20 μg/mL vancomycin, 30 minutes): reduced the signal intensity
intensity of C-D component after MCR versus control ([6]; VSE, 20 μg/ml, 0.5, 1 and 3 h (p 2.2×10^−13, 2.0×10^−11, 3.9×10^−15)): significantly reduced
normalized SRS spectra, signal intensity in C-D region with and without treatment ([14]; 20 μg/mL vancomycin, 30 minutes): remain the same
intensity of C-D component after MCR versus control ([14]; 0.5 to 3 h): did not significantly reduce
intensity of C-D component after MCR versus control ([14]; 3 h (p-value 5×10^−4)): higher intensity of C-D component than the control group
MIC ([7]; Enterococcus faecalis): 1 µg/mL (≈ 0.69 µM)

gentamycin
susceptibility of P. aeruginosa pre-determined by microdilution [4]: susceptible
susceptibility of E. faecalis 31970 based on metabolic imaging method ([6]; 1 h): resistant
C-D signal / metabolic activity of D2O in SRS imaging ([5]; 20 μg/ml, 70% D2O LB medium): significantly reduced
average C-D signal intensity relative to about 65% of control threshold ([5]; 20 μg/ml): always below the threshold
gentamicin concentration at which D2O metabolic activity was inhibited ([5]; about 1 hour, 70% D2O LB medium): ≥ 8 µg/mL
MIC with SRS-based D2O metabolic imaging method ([5]; about 1 hour, 70% D2O LB medium, 65% intensity threshold): about 8 μg/ml
MIC ([7]; conventional culture based method, E. faecalis 31970 (VSE)): >256 µg/mL
